Data published in patent publication US10927117B2 (BEIGENE SWITZERLAND GMBH, priority 2016, dated 2021).
pIC50: −log10 of the molar value.

Tests used:
[1] = test system: Chronic Lymphocytic Leukemia and Small Lymphocytic Lymphoma (CLL/SLL); experiment: Phase 1 trial in patients with CLL/SLL; assay type: in vivo, human
Protocol: The dose-escalation component of the trail tested total daily doses between 40 mg and 320 mg, and the ongoing dose-expansion component is testing doses of 160 mg twice a day (BID) or 320 mg once a day (QD). As of Mar. 31, 2017, 69 patients with CLL or SLL (18 TN, […]) were enrolled in the study.

[2] = test system: 7 major human CYPs
[3] = test system: Waldenstrom's Macroglobulinemia (WM); experiment: Phase 1 trial in patients with Waldenstrom's Macroglobulinemia (WM); assay type: in vivo, human
Protocol: The dose-escalation component of the trail tested total daily doses ranging from 40 mg to 320 mg, and the ongoing dose-expansion phase is testing doses of 160 mg twice a day (BID) or 320 mg once a day (QD). As of Mar. 31, 2017, 48 patients with WM were enrolled in the study. Responses were determined according to the modified Sixth International Workshop on WM (IWWM) criteria.

[4] = Tissue distribution; assay type: in vivo
[5] = test system: JEKO-1 cells (MCL cell line); experiment: Tumor cell proliferation, CellTiter-Glo, JEKO-1; assay type: cell-based; conditions: Homo sapiens, 144 h, JEKO-1 cell line, 6-day exposure, read-out: Potency IC50
Protocol: (§1) 3 MCL cell lines (Rec-1, Mino and JEKO-1) and an ABC type diffuse large B-cell lymphoma cell line (TMD8) were used in this study. Cell lines were maintained in RPMI-1640 supplemented with 10% fetal bovine serum/FBS (Thermo Scientific); 100 units/ml penicillin (Gibco) and 0.1 mg/ml streptomycin (Gibco) and kept at 37° C. in a humidified atmosphere of 5% CO2 in air. Cell lines were reinstated from frozen stocks that were laid down within 30 passages from the original cells purchased.
(§2) The growth-inhibitory activity of compounds in Rec-1, Mino, JEKO-1 and TMD-8 cells was determined using CellTiter-Glo luminescent cell viability assay (Promega). The number of cells seeded per well of a 96-well plate was optimized for each cell line to ensure logarithmic growth over 6 days treatment period. Cells were treated in triplicate with a 10-point dilution series. […] Mixture was mixed on an orbital shaker for 2 minutes to allow cell lysis, followed by 10 minutes incubation at room temperature to allow development and stabilization of luminescent signal, which corresponded to quantity of ATP and thus the quantity of metabolically active cells. Luminescent signal was measured using PHERAstar FS reader (BMG Labtech). IC50 values for cell viability were determined with GraphPad Prism software and were the mean of 3 independent assays.

[6] = test system: TMD8 cells (ABC type diffuse large B-cell lymphoma cell line); experiment: Tumor cell proliferation, CellTiter-Glo, TMD-8; assay type: cell-based; conditions: Homo sapiens, TMD8, 144 h; TMD-8 cell line, DLBCL(ABC); 6-day exposure; mean of 3 independent assays; read-out: Potency IC50
Protocol: as §1, §2

[7] = Pharmacokinetics in dogs (LC-MS/MS); assay type: in vivo, beagle dogs
[8] = target: T1, TEC (Homo sapiens, UniProt P42680); experiment: IC50 determination of TEC (TR-FRET); assay type: biochemical; conditions: at KM of ATP, 1-hour pre-incubation
T1 sequence (P42680 1-631): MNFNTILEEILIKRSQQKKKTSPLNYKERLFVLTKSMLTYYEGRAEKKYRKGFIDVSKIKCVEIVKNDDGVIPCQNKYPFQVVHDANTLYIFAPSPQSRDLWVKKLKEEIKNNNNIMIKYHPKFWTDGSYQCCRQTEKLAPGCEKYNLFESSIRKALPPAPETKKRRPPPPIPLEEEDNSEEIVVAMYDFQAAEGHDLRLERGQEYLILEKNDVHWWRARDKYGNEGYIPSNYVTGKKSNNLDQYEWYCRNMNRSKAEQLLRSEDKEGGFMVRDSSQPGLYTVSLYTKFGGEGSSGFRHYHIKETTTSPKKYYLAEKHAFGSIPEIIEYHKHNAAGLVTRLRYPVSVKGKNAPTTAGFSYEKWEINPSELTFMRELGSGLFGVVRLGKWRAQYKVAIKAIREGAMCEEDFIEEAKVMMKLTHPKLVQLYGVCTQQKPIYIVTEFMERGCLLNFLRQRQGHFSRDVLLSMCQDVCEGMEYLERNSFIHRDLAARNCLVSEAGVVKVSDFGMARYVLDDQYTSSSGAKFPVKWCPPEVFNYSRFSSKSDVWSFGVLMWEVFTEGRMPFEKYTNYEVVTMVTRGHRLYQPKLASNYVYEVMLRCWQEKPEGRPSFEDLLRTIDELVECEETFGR

[9] = CLL/SLL, adverse event of interest

In the case of C=CC(=O)N1CCC([C@@H]2CCNc3c(C(N)=O)c(-c4ccc(Oc5ccccc5)cc4)nn32)CC1 [Compound 1, (S)-7-(1-acryloylpiperidin-4-yl)-2-(4-phenoxyphenyl)-4,5,6,7-tetra-hydropyrazolo[1,5-a]pyrimidine-3-carboxamide], the AE arthralgia ([1]; CLL/SLL) was 12%, the AE cough ([1]; CLL/SLL) was 23% and the AE diarrhea ([1]; CLL/SLL) was 22%. For the same molecule, the AE fatigue ([1]; CLL/SLL) was 29%, the AE headache ([1]; CLL/SLL) was 19% and the AE hematuria ([1]; CLL/SLL) was 15%. It also gave an AE muscle spasms ([1]; CLL/SLL) of 12%, an AE nausea ([1]; CLL/SLL) of 13% and an AE rash ([1]; CLL/SLL) of 13%. The “AE upper respiratory tract infection” value ([1]; CLL/SLL) was 28%, the “AE urinary tract infection” value ([1]; CLL/SLL) was 12% and the “number of serious AEs (SAEs)” value ([1]; CLL/SLL) was 18. The “patients with serious AEs” value ([1]; CLL/SLL) was 13, the “overall response rate (ORR)” value ([1]; CLL/SLL, 66 evaluable patients, median follow-up 10.5 months) was 94% and the “PRs with lymphocytosis (PR-Ls)” value ([1]; CLL/SLL, 66 patients) was 9%. The “complete responses (CRs)” value ([1]; CLL/SLL, 66 patients) was 3%, the “partial responses (PRs)” value ([1]; CLL/SLL, 66 patients) was 82% and the “grade 2 atrial fibrillation” value [1, 9] was “one case”. For the same molecule, the “grade 2 diarrhea” value [1, 9] was “one case”, the AE petechiae/purpura/contusion ([1]; CLL/SLL, any attribution) was 46% and the “patients who discontinued treatment due to an AE” value ([1]; CLL/SLL, grade 2 pleural effusion) was “one patient”. For the same molecule, the treatment discontinuation rate ([1]; CLL/SLL, median follow-up 10.5 months) was 3%, the major bleeding event ([1]; CLL/SLL, subcutaneous hemorrhage) was “one case of grade 3 purpura” and the CRs ([1]; R/R CLL/SLL, 50 patients) was 2%. The PR-Ls ([1]; R/R CLL/SLL, 50 patients) was 8%, the PRs ([1]; R/R CLL/SLL, 50 patients) was 82% and the stable disease ([1]; R/R CLL/SLL, 50 patients) was 6%. For the same molecule, the ORR ([1]; R/R CLL/SLL, 50 patients, median follow-up 14.0 months) was 92%, the CRs ([1]; TN CLL/SLL, 16 patients) was 6% and the PR-Ls ([1]; TN CLL/SLL, 16 patients) was 13%. The PRs ([1]; TN CLL/SLL, 16 patients) was 81%, the ORR ([1]; TN CLL/SLL, 16 patients, median follow-up 7.6 months) was 100% and the “time-dependent CYP inhibition potential” value [2] was “unlikely to be time dependent CYP inhibitors”. For the same molecule, the “discontinuation for Compound 1-related toxicity” value [3] was “no discontinuation”, the “events leading to treatment discontinuation” value [3] was “Three events” and the “serious AEs assessed to be possibly related” value [3] was “Five”. For the same molecule, the major response rate ([3]; 42 evaluable patients) was 76%, the partial responses ([3]; 42 evaluable patients) was 33% and the “overall response rate (ORR)” value ([3]; 42 evaluable patients, median follow-up 12.3 months) was 90%. The AE anemia ([3]; 48 patients) was 15%, the AE constipation ([3]; 48 patients) was 25% and the AE cough ([3]; 48 patients) was 15%. For the same molecule, the AE diarrhea ([3]; 48 patients) was 19%, the AE epistaxis ([3]; 48 patients) was 19% and the AE headache ([3]; 48 patients) was 15%. It also gave an AE nausea ([3]; 48 patients) of 17%, an AE neutropenia ([3]; 48 patients) of 13% and an AE rash ([3]; 48 patients) of 13%. The “AE upper respiratory tract infection” value ([3]; 48 patients) was 31%, the “grade 3 or 4 anemia” value ([3]; 48 patients) was 8% and the “grade 3 or 4 diarrhea” value ([3]; 48 patients) was 2%. For the same molecule, the “grade 3 or 4 headache” value ([3]; 48 patients) was 2%, the “grade 3 or 4 neutropenia” value ([3]; 48 patients) was 8% and the AE petechiae/purpura/contusion ([3]; 48 patients, any attribution) was 35%. The “cases of atrial fibrillation” value ([3]; all grade 1 or 2) was “three cases”, the serious hemorrhage ([3]; hemothorax) was “one case” and the “level in brain tissue” value ([4]; brain) was “low in brain tissue”. The tissue distribution ([4]; various tissues) was “widely distributed to various tissues”.

For C=CC(=O)N1CCC([C@@H]2CCNc3c(C(N)=O)c(-c4ccc(Oc5ccccc5)cc4)nn32)CC1 [Crystalline Form A, (S)-7-(1-acryloylpiperidin-4-yl)-2-(4-phenoxyphenyl)-4,5,6,7-tetra-hydropyrazolo[1,5-a]pyrimidine-3-carboxamide], the pIC50 [5] was 7.70, the pIC50 [6] was 9.27 and the “accumulation following multiple oral dosing” value [7] was “no accumulation”. The “bioavailability (F %)” value [7] was “reasonably good bioavailability”, the “clearance (CL)” value [7] was “moderate clearance” and the “linearity of PK over the dose range” value [7] was “linear PK over the dose range”. The pIC50 [8] was 8.72.
